From US20250382332A1, “NOVEL ALPHA-FACTOR BASED PEPTIDES WITH ANTIFUNGAL ACTIVITY” (INVAIO SCIENCES, INC., priority 2024, published 2025)
Peptide text beside a SMILES is read from it.

Test system: Botrytis cinerea (B05.10)
Experiment: Resazurin antifungal assay of 180 alpha-factor peptide variants towards Botrytis (Example 2)
Type: cell-based
Conditions: % inhibition of fungal growth, Botrytis conidia, resazurin; for Inhibition at 10 μM: peptide 10 μM; for Inhibition at 20 μM: peptide 20 μM; for Inhibition at 50 μM: peptide 50 μM; for Inhibition at 100 μM: peptide 100 μM
How it was run: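 B. cinerea B05.10 conidia (5000/well) were exposed to peptides at 100, 50, 20, 15 and 10 μM final for 24 h at 20° C. Resazurin was then added and fluorescence read at 570/620 nm. Percent growth inhibition was calculated against conidia-only wells, with four technical replicates.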

| Compound | Inhibition at 10 μM [%] | Inhibition at 20 μM [%] | Inhibition at 50 μM [%] | Inhibition at 100 μM [%] | Inhibition at 15 μM (peptide 15 μM) [%] |
| --- | --- | --- | --- | --- | --- |
| CSCC[C@H](NC(=O)[C@@H]1CCCN1C(=O)[C@H](CCC(N)=O)NC(=O)CNC(=O)[C@@H]1CCCN1C(=O)[C@H](CCCCN)NC(=O)[C@H](Cc1ccccc1)NC(=O)[C@H](CC(N)=O)NC(=O)[C@H](CC(C)C)NC(=O)[C@H](Cc1ccccc1)NC(=O)[C@H](Cc1c[nH]cn1)NC(=O)[C@@H](N)CCCCN)C(=O)N[C@@H](Cc1ccc(O)cc1)C(=O)O [compound 78] (H-KHFLNFKPGQPMY-OH; N-terminus and C-terminus assumed) | <90 | <90 | 100 | 100 | – |
| CSCC[C@H](NC(=O)[C@@H]1CCCN1C(=O)[C@H](CCC(=O)O)NC(=O)CNC(=O)[C@H](CCCNC(=N)N)NC(=O)[C@H](CCC(N)=O)NC(=O)[C@H](CC(C)C)NC(=O)[C@H](CCC(N)=O)NC(=O)CNC(=O)[C@H](Cc1c[nH]c2ccccc12)NC(=O)[C@H](Cc1c[nH]cn1)NC(=O)[C@@H](N)Cc1c[nH]c2ccccc12)C(=O)N[C@@H](Cc1ccc(O)cc1)C(=O)O [compound 135] (H-WHWGQLQRGEPMY-OH; N-terminus and C-terminus assumed) | – | – | <90 | <90 | – |
| CSCC[C@H](NC(=O)[C@@H]1CCCN1C(=O)[C@H](CCC(N)=O)NC(=O)CNC(=O)[C@@H]1CCCN1C(=O)[C@H](CCCCN)NC(=O)[C@H](Cc1ccccc1)NC(=O)[C@H](CCCNC(=N)N)NC(=O)[C@H](CC(C)C)NC(=O)[C@@H](NC(=O)[C@H](Cc1c[nH]cn1)NC(=O)[C@@H](N)CCCCN)[C@@H](C)O)C(=O)N[C@@H](Cc1ccc(O)cc1)C(=O)O [compound 80] (H-KHTLRFKPGQPMY-OH; N-terminus and C-terminus assumed) | <90 | 99.56 | 100 | 100 | <90 |
| CSCC[C@H](NC(=O)[C@@H]1CCCN1C(=O)[C@H](CCC(N)=O)NC(=O)CNC(=O)[C@@H]1CCCN1C(=O)[C@H](CCCCN)NC(=O)[C@H](Cc1ccccc1)NC(=O)[C@H](CC(N)=O)NC(=O)[C@H](CC(C)C)NC(=O)[C@H](Cc1ccc(O)cc1)NC(=O)[C@H](CCCCN)NC(=O)[C@@H](N)Cc1c[nH]c2ccccc12)C(=O)N[C@@H](Cc1ccc(O)cc1)C(=O)O [compound 100] (H-WKYLNFKPGQPMY-OH; N-terminus and C-terminus assumed) | <90 | <90 | 93.45 | 100 | – |
| CSCC[C@H](NC(=O)[C@@H]1CCCN1C(=O)[C@H](CCC(N)=O)NC(=O)CNC(=O)[C@@H]1CCCN1C(=O)[C@H](Cc1c[nH]cn1)NC(=O)[C@H](CC(C)C)NC(=O)[C@H](CCCCN)NC(=O)[C@@H](NC(=O)[C@H](Cc1ccccc1)NC(=O)[C@H](Cc1c[nH]cn1)NC(=O)[C@@H](N)Cc1c[nH]c2ccccc12)C(C)C)C(=O)N[C@@H](Cc1ccc(O)cc1)C(=O)O [compound 74] (H-WHFVKLHPGQPMY-OH; N-terminus and C-terminus assumed) | <90 | <90 | 100 | 100 | – |
| CC[C@H](C)[C@H](NC(=O)[C@H](CCC(N)=O)NC(=O)[C@H](CC(C)C)NC(=O)[C@H](Cc1c[nH]c2ccccc12)NC(=O)[C@H](CO)NC(=O)[C@@H](N)CCCCN)C(=O)N[C@@H](CCCCN)C(=O)N[C@@H](CC(N)=O)C(=O)NCC(=O)N[C@@H](CCC(N)=O)C(=O)N1CCC[C@H]1C(=O)N[C@@H](CCSC)C(=O)N[C@@H](Cc1ccc(O)cc1)C(=O)O [compound 152] (H-KSWLQIKNGQPMY-OH; N-terminus and C-terminus assumed) | – | – | <90 | <90 | – |
